Data from publication PMC9311539, “Antibacterial Activity against Clinical Isolates and In Vivo Efficacy of Coralmycins” (Antibiotics, 2022).
Converted amounts (≈) assume the structure as drawn. Where two headings read alike, the source gives them in different places.

Columns and labels:
S. aureus Giorgio = assay: Time-kill assay, S. aureus Giorgio; assay type: cell-based, Staphylococcus aureus; conditions: 2× and 4× MIC, 24 h
Protocol: (§1) Time-kill analysis was performed by the NCCLS M26-A method. The test organisms (S. aureus Giorgio, S. pneumoniae ATCC49619, MRSA CCARM 3167, and VRE 3) incubated in CAMHB for 18 h at 35 °C were diluted to 10^5 CFU/mL with fresh CAMHB, and the diluted cultures were preincubated for 2 h. For S. pneumoniae culture, 5% sheep blood (Hanil Comed, Seongnam, Korea) was added. […] Culture aliquots (0.1 mL) were removed after 0, 2, 4, 6 and 24 h of incubation, and serial 10-fold dilutions were prepared in saline as needed. The numbers of viable cells were determined on drug-free MHA plates after 20 h of incubation. A compound was considered bactericidal if the original inoculum was reduced by 3 log CFU/mL (99.9%) at each concentration or was considered bacteriostatic if the inoculum was reduced by 0–3 log CFU/mL.

S. pneumoniae ATCC49619 = assay: Time-kill assay, S. pneumoniae ATCC49619; assay type: cell-based, Streptococcus pneumoniae; conditions: 2× and 4× MIC, 24 h
Protocol: as §1

MRSA CCARM 3167 = assay: Time-kill assay, MRSA CCARM 3167; assay type: cell-based, Staphylococcus aureus; conditions: 2× and 4× MIC, 24 h
Protocol: as §1

VRE 3 = assay: Time-kill assay, VRE 3; assay type: cell-based, vancomycin-resistant Enterococcus; conditions: 2× and 4× MIC, 24 h
Protocol: as §1

[1] = highly protein-bound antibacterial agents in clinical use; cited from earlier work
MSSA = assay: MIC, broth microdilution, clinical isolates: MSSA; assay type: cell-based; conditions: Staphylococcus aureus; for MIC90: read-out: MIC90
Protocol: (§2) To assess the MICs for antibiotic susceptibility, Gram-positive bacteria isolated from human clinical specimens were obtained from several general hospitals in Seoul, Korea, during 2002–2018. Staphylococcus aureus Giorgio and Streptococcus pneumoniae ATCC49619 were used to test in vivo efficacies against […], in mice.
(§3) The MICs of the antimicrobial agents were determined by a twofold microdilution broth method, as described by the Clinical and Laboratory Standards Institute. Briefly, test organisms were grown on Mueller–Hinton agar (MHA, BD Difco, Sparks, MD, USA) plates, subcultured into cation-adjusted Mueller–Hinton broth (CAMHB, BD Difco, Sparks, MD, USA), and incubated for 18 h at 35 °C. For S. pneumoniae culture, 5% sheep blood (Hanil Comed, Seongnam, Korea) was added. The cultured bacteria were diluted using phosphate-buffered saline (PBS) to achieve a bacterial cell density of approximately 5 × 10^6 CFU/mL. All test organisms were loaded into 96-well plates containing serial dilutions of the antimicrobial agents to achieve a concentration of 5 × 10^4 CFU/well. The plates were incubated at 35 °C for 18–20 h and examined for bacterial growth.

VRE = assay: MIC, broth microdilution, clinical isolates: VRE; assay type: cell-based, vancomycin-resistant Enterococcus; conditions: for MIC50: read-out: MIC50
Protocol: as §2, §3

S. pneumoniae = assay: MIC, broth microdilution, clinical isolates: S. pneumoniae; assay type: cell-based, Streptococcus pneumoniae; conditions: for MIC50: read-out: MIC50
Protocol: as §2, §3

[2] = tested on: Vancomycin-sensitive E. faecalis; assay: MIC, broth microdilution, clinical isolates: vancomycin-sensitive E. faecalis; assay type: cell-based, Enterococcus faecalis; conditions: Enterococcus faecalis, 32 clinical isolates; for MIC50: read-out: MIC50; for MIC90: read-out: MIC90
Protocol: as §2, §3

[3] = tested on: Vancomycin-sensitive E. faecium; assay: MIC, broth microdilution, clinical isolates: vancomycin-sensitive E. faecium; assay type: cell-based, Enterococcus faecium; conditions: Enterococcus faecium, 32 clinical isolates; for MIC50: read-out: MIC50; for MIC90: read-out: MIC90
Protocol: as §2, §3

MRSA = assay: MIC, broth microdilution, clinical isolates: MRSA; assay type: cell-based, Staphylococcus aureus; conditions: Staphylococcus aureus, MRSA, 42 clinical isolates; for MIC50: read-out: MIC50; for MIC90: read-out: MIC90
Protocol: as §2, §3

[4] = tested on: CNS (coagulase-negative staphylococci); assay: MIC, broth microdilution, clinical isolates: CNS; assay type: cell-based; conditions: 31 clinical isolates; for MIC50: read-out: MIC50; for MIC90: read-out: MIC90
Protocol: as §2, §3

[5] = 26 clinical isolates, read-out: MIC50
[6] = Enterococcus, VRE, 46 clinical isolates
[7] = Enterococcus, VRE, 46 clinical isolates, read-out: MIC90
[8] = Streptococcus pneumoniae, 27 S. pneumoniae isolates, read-out: MIC90
[9] = Streptococcus pneumoniae, 27 clinical isolates

Compound	MIC50 (MSSA; [5])	MIC90 (MSSA; 26 clinical isolates)	MIC50 (VRE; [6])	MIC90 (VRE; [7])	MIC90 (S. pneumoniae; 27 clinical isolates)	MIC90 (S. pneumoniae; [8])	MIC50 (S. pneumoniae; [9])	MIC50 [2]	MIC90 [2]	MIC50 [3]	MIC90 [3]	MIC50 (MRSA)	MIC90 (MRSA)	MIC50 [4]	MIC90 [4]	other results
O=C(O)c1cn(C2CC2)c2cc(N3CCNCC3)c(F)cc2c1=O [ciprofloxacin]																time-kill activity (S. aureus Giorgio): bactericidal (considered bactericidal if the original inoculum was reduced by 3 log CFU/mL (99.9%) at each concentration); time-kill activity (S. pneumoniae ATCC49619): bactericidal (considered bactericidal if the original inoculum was reduced by 3 log CFU/mL (99.9%) at each concentration); time-kill activity (MRSA CCARM 3167): bactericidal (considered bactericidal if the original inoculum was reduced by 3 log CFU/mL (99.9%) at each concentration); time-kill activity (VRE 3): bactericidal (considered bactericidal if the original inoculum was reduced by 3 log CFU/mL (99.9%) at each concentration)
CO/N=C(\C(=O)N[C@@H]1C(=O)N2C(C(=O)O)=C(CSc3nc(=O)c(=O)[nH]n3C)CS[C@H]12)c1csc(N)n1 [ceftriaxone]																protein-bound [1]: > 90%
Cc1onc(-c2ccccc2)c1C(=O)N[C@@H]1C(=O)N2[C@@H]1SC(C)(C)[C@@H]2C(=O)O [Oxacillin]	0.5 µg/mL (≈ 1.25 µM)	1 µg/mL (≈ 2.49 µM)										> 32 µg/mL	> 32 µg/mL			
C[C@@H](O)[C@H]1C(=O)N2C(C(=O)O)=C(S[C@@H]3CN[C@H](C(=O)N(C)C)C3)[C@H](C)[C@H]12 [Meropenem]		0.25 µg/mL (≈ 0.652 µM)	> 32 µg/mL	> 32 µg/mL	4 µg/mL (≈ 10.4 µM)	4 µg/mL (≈ 10.4 µM)	0.5 µg/mL (≈ 1.3 µM)	4 µg/mL (≈ 10.4 µM)	16 µg/mL (≈ 41.7 µM)	> 32 µg/mL	> 32 µg/mL					MIC50 (MSSA): 0.125 µg/mL (≈ 0.326 µM)
teicoplanin																protein-bound [1]: > 90%

The next lines start with results.

MIC50 (MSSA; [5])	MIC90 (MSSA; 26 clinical isolates)	MIC50 (VRE; [6])	MIC90 (VRE; [7])	MIC90 (S. pneumoniae; 27 clinical isolates)	MIC90 (S. pneumoniae; [8])	MIC50 (S. pneumoniae; [9])	MIC50 [2]	MIC90 [2]	MIC50 [3]	MIC90 [3]	MIC50 (MRSA)	MIC90 (MRSA)	MIC50 [4]	MIC90 [4]	Compound	other results
4 µg/mL (≈ 9.36 µM)	4 µg/mL (≈ 9.36 µM)	> 32 µg/mL	> 32 µg/mL	>32 µg/mL	> 32 µg/mL	> 32 µg/mL	> 32 µg/mL	> 32 µg/mL	> 32 µg/mL	> 32 µg/mL					CO[C@@]1(NC(=O)Cc2cccs2)C(=O)N2C(C(=O)O)=C(COC(N)=O)CS[C@@H]21 [Cefoxitin]	
0.25 µg/mL (≈ 0.692 µM)	0.5 µg/mL (≈ 1.38 µM)	> 32 µg/mL	> 32 µg/mL	16 µg/mL (≈ 44.3 µM)	16 µg/mL (≈ 44.3 µM)	0.5 µg/mL (≈ 1.38 µM)	2 µg/mL (≈ 5.53 µM)	32 µg/mL (≈ 88.6 µM)	16 µg/mL (≈ 44.3 µM)	32 µg/mL (≈ 88.6 µM)	16 µg/mL (≈ 44.3 µM)	> 32 µg/mL	8 µg/mL (≈ 22.1 µM)	> 32 µg/mL	C[C@H]1COc2c(N3CCN(C)CC3)c(F)cc3c(=O)c(C(=O)O)cn1c23 [Levofloxacin]	
1 µg/mL (≈ 2.09 µM)	> 32 µg/mL	> 32 µg/mL	> 32 µg/mL			32 µg/mL (≈ 67 µM)	> 32 µg/mL	> 32 µg/mL	> 32 µg/mL	> 32 µg/mL	32 µg/mL (≈ 67 µM)	> 32 µg/mL	> 32 µg/mL	> 32 µg/mL	CNC(C)C1CCC(N)C(OC2C(N)CC(N)C(OC3OCC(C)(O)C(NC)C3O)C2O)O1 (centres unmarked) [Gentamicin]	MIC90 (S. pneumoniae; Streptococcus pneumoniae, 27 clinical isolates, read-out: MIC90): > 32 µg/mL
8 µg/mL (≈ 14.6 µM)	16 µg/mL (≈ 29.3 µM)	> 32 µg/mL	> 32 µg/mL	>32 µg/mL	> 32 µg/mL	> 32 µg/mL	> 32 µg/mL	> 32 µg/mL	> 32 µg/mL	> 32 µg/mL	> 32 µg/mL	> 32 µg/mL	32 µg/mL (≈ 58.5 µM)	> 32 µg/mL	CC(C)(O/N=C(\C(=O)N[C@@H]1C(=O)N2C(C(=O)[O-])=C(C[n+]3ccccc3)CS[C@H]12)c1csc(N)n1)C(=O)O [Ceftazidime]	
2 µg/mL (≈ 1.23 µM)	4 µg/mL (≈ 2.47 µM)	4 µg/mL (≈ 2.47 µM)		8 µg/mL (≈ 4.94 µM)	8 µg/mL (≈ 4.94 µM)	2 µg/mL (≈ 1.23 µM)	4 µg/mL (≈ 2.47 µM)	8 µg/mL (≈ 4.94 µM)	4 µg/mL (≈ 2.47 µM)	8 µg/mL (≈ 4.94 µM)	2 µg/mL (≈ 1.23 µM)	4 µg/mL (≈ 2.47 µM)	2 µg/mL (≈ 1.23 µM)	4 µg/mL (≈ 2.47 µM)	CCCCCCCCCC(=O)N[C@@H](Cc1c[nH]c2ccccc12)C(=O)N[C@H](CC(N)=O)C(=O)N[C@@H](CC(=O)O)C(=O)N[C@@H]1C(=O)NCC(=O)N[C@@H](CCCN)C(=O)N[C@@H](CC(=O)O)C(=O)N[C@H](C)C(=O)N[C@@H](CC(=O)O)C(=O)NCC(=O)N[C@H](CO)C(=O)N[C@@H]([C@H](C)CC(=O)O)C(=O)N[C@@H](CC(=O)c2ccccc2N)C(=O)O[C@@H]1C [Daptomycin]	MIC90 (VRE; 46 clinical isolates): 8 µg/mL (≈ 4.94 µM); MIC90 (VRE; Enterococcus, 46 VRE isolates, read-out: MIC90): 8 µg/mL (≈ 4.94 µM)
